± gives the expanded uncertainty stated by the source.
Legend:
[1] = excess molar enthalpy (molar enthalpy of mixing); xn = mol fraction of the nth substance listed; details: 308.15 K, 101 kPa, Liquid, Flow calorimetry
[2] = refractive index (Na D-line) (dimensionless); xn = mol fraction of the nth substance listed; details: 308.15 K, 101 kPa, Liquid, Standard Abbe refractometry
[3] = xn = mol fraction of the nth substance listed; details: 308.15 K, 101 kPa, Liquid
[4] = 101.33 kPa, Liquid
[5] = refractive index (Na D-line) (dimensionless); details: 101.33 kPa, Liquid, Standard Abbe refractometry

OCCc1ccccc1 [2-phenylethanol] + COc1ccccc1 gave an excess molar enthalpy ([1]; x2 = 0.0437) of 0.0227 ± 0.000621 kcal/mol, an excess molar enthalpy ([1]; x2 = 0.0838) of 0.0478 ± 0.00112 kcal/mol and an excess molar enthalpy ([1]; x2 = 0.1206) of 0.0728 ± 0.00163 kcal/mol. For the same molecule, the excess molar enthalpy ([1]; x2 = 0.1546) was 0.0948 ± 0.00208 kcal/mol, the excess molar enthalpy ([1]; x2 = 0.2153) was 0.134 ± 0.00287 kcal/mol and the excess molar enthalpy ([1]; x2 = 0.2678) was 0.164 ± 0.00359 kcal/mol. It also gave an excess molar enthalpy ([1]; x2 = 0.3543) of 0.207 ± 0.00454 kcal/mol, an excess molar enthalpy ([1]; x2 = 0.4224) of 0.228 ± 0.00478 kcal/mol and an excess molar enthalpy ([1]; x2 = 0.5232) of 0.25 ± 0.00526 kcal/mol. The excess molar enthalpy ([1]; x2 = 0.6221) was 0.269 ± 0.00574 kcal/mol, the excess molar enthalpy ([1]; x2 = 0.687) was 0.273 ± 0.00598 kcal/mol and the excess molar enthalpy ([1]; x2 = 0.767) was 0.267 ± 0.00574 kcal/mol. The excess molar enthalpy ([1]; x2 = 0.8145) was 0.251 ± 0.00526 kcal/mol, the excess molar enthalpy ([1]; x2 = 0.8682) was 0.217 ± 0.00454 kcal/mol and the excess molar enthalpy ([1]; x2 = 0.9006) was 0.185 ± 0.00406 kcal/mol. For the same molecule, the excess molar enthalpy ([1]; x2 = 0.9294) was 0.147 ± 0.00311 kcal/mol, the excess molar enthalpy ([1]; x2 = 0.9634) was 0.0864 ± 0.00203 kcal/mol and the refractive index ([2]; x2 = 0.0521) was 1.526 ± 0.0007. The refractive index ([2]; x2 = 0.1223) was 1.5248 ± 0.0007, the refractive index ([2]; x2 = 0.2121) was 1.5233 ± 0.0007 and the refractive index ([2]; x2 = 0.3153) was 1.5217 ± 0.0007. The refractive index ([2]; x2 = 0.4172) was 1.52 ± 0.0007, the refractive index ([2]; x2 = 0.5245) was 1.5182 ± 0.0007 and the refractive index ([2]; x2 = 0.617) was 1.5165 ± 0.0007. The refractive index ([2]; x2 = 0.7479) was 1.514 ± 0.0007, the refractive index ([2]; x2 = 0.7673) was 1.5136 ± 0.0007 and the refractive index ([2]; x2 = 0.811) was 1.5127 ± 0.0007. The refractive index ([2]; x2 = 0.9073) was 1.5106 ± 0.0007, the refractive index ([2]; x2 = 0.9513) was 1.5096 ± 0.0007 and the mass density ([3]; x2 = 0.0521) was 1007.44 ± 0.53 kg/m3. The mass density ([3]; x2 = 0.1223) was 1005.63 ± 0.53 kg/m3, the mass density ([3]; x2 = 0.2121) was 1003.26 ± 0.52 kg/m3 and the mass density ([3]; x2 = 0.3153) was 1000.43 ± 0.52 kg/m3. The mass density ([3]; x2 = 0.4172) was 997.53 ± 0.52 kg/m3, the mass density ([3]; x2 = 0.5245) was 994.36 ± 0.52 kg/m3 and the mass density ([3]; x2 = 0.617) was 991.55 ± 0.52 kg/m3. The mass density ([3]; x2 = 0.7479) was 987.5 ± 0.52 kg/m3, the mass density ([3]; x2 = 0.7673) was 986.9 ± 0.52 kg/m3 and the mass density ([3]; x2 = 0.811) was 985.5 ± 0.5 kg/m3. For the same molecule, the mass density ([3]; x2 = 0.9073) was 982.55 ± 0.52 kg/m3 and the mass density ([3]; x2 = 0.9513) was 981.2 ± 0.52 kg/m3.
For OCc1ccccc1 [benzenemethanol], the mass density ([4]; 298.15 K) was 1041.65 ± 0.22 kg/m3, the mass density ([4]; 308.15 K) was 1033.64 ± 0.21 kg/m3 and the refractive index ([5]; 298.15 K) was 1.5377 ± 0.0005. It also gave a refractive index ([5]; 308.15 K) of 1.535 ± 0.0005.
For CCOc1ccccc1 [ethoxybenzene], the mass density ([4]; 308.15 K) was 950.86 ± 0.55 kg/m3, the refractive index ([5]; 298.15 K) was 1.5058 ± 0.0007 and the refractive index ([5]; 308.15 K) was 1.5002 ± 0.0007.
Work on OCCCc1ccccc1 [3-phenyl-1-propanol] + CCOc1ccccc1 yielded an excess molar enthalpy ([1]; x2 = 0.0427) of 0.0329 ± 0.000837 kcal/mol, an excess molar enthalpy ([1]; x2 = 0.0818) of 0.0631 ± 0.00143 kcal/mol and an excess molar enthalpy ([1]; x2 = 0.118) of 0.088 ± 0.00196 kcal/mol. It also gave an excess molar enthalpy ([1]; x2 = 0.1513) of 0.114 ± 0.00239 kcal/mol, an excess molar enthalpy ([1]; x2 = 0.211) of 0.146 ± 0.00311 kcal/mol and an excess molar enthalpy ([1]; x2 = 0.2629) of 0.167 ± 0.00359 kcal/mol. For the same molecule, the excess molar enthalpy ([1]; x2 = 0.3485) was 0.193 ± 0.00406 kcal/mol, the excess molar enthalpy ([1]; x2 = 0.4162) was 0.212 ± 0.00454 kcal/mol and the excess molar enthalpy ([1]; x2 = 0.5169) was 0.236 ± 0.00502 kcal/mol. It also gave an excess molar enthalpy ([1]; x2 = 0.6162) of 0.257 ± 0.0055 kcal/mol, an excess molar enthalpy ([1]; x2 = 0.6815) of 0.267 ± 0.00574 kcal/mol and an excess molar enthalpy ([1]; x2 = 0.7625) of 0.267 ± 0.00574 kcal/mol. The excess molar enthalpy ([1]; x2 = 0.8106) was 0.255 ± 0.0055 kcal/mol, the excess molar enthalpy ([1]; x2 = 0.8596) was 0.225 ± 0.00478 kcal/mol and the excess molar enthalpy ([1]; x2 = 0.8954) was 0.194 ± 0.0043 kcal/mol. For the same molecule, the excess molar enthalpy ([1]; x2 = 0.9277) was 0.152 ± 0.00335 kcal/mol, the excess molar enthalpy ([1]; x2 = 0.9625) was 0.0896 ± 0.00208 kcal/mol and the refractive index ([2]; x2 = 0.0636) was 1.5203 ± 0.0007. It also gave a refractive index ([2]; x2 = 0.1067) of 1.5194 ± 0.0007, a refractive index ([2]; x2 = 0.2164) of 1.5173 ± 0.0007 and a refractive index ([2]; x2 = 0.31) of 1.5153 ± 0.0007. For the same molecule, the refractive index ([2]; x2 = 0.417) was 1.513 ± 0.0007, the refractive index ([2]; x2 = 0.515) was 1.5109 ± 0.0007 and the refractive index ([2]; x2 = 0.6168) was 1.5086 ± 0.0007. It also gave a refractive index ([2]; x2 = 0.7074) of 1.5066 ± 0.0007, a refractive index ([2]; x2 = 0.7975) of 1.5045 ± 0.0007 and a refractive index ([2]; x2 = 0.8977) of 1.5023 ± 0.0007. For the same molecule, the refractive index ([2]; x2 = 0.9488) was 1.5012 ± 0.0007, the refractive index ([2]; x2 = 0.9596) was 1.501 ± 0.0007 and the mass density ([3]; x2 = 0.0636) was 988.77 ± 0.52 kg/m3. For the same molecule, the mass density ([3]; x2 = 0.1067) was 987.22 ± 0.52 kg/m3, the mass density ([3]; x2 = 0.2164) was 983.2 ± 0.52 kg/m3 and the mass density ([3]; x2 = 0.31) was 979.65 ± 0.52 kg/m3. The mass density ([3]; x2 = 0.417) was 975.46 ± 0.52 kg/m3, the mass density ([3]; x2 = 0.515) was 971.51 ± 0.52 kg/m3 and the mass density ([3]; x2 = 0.6168) was 967.29 ± 0.52 kg/m3. The mass density ([3]; x2 = 0.7074) was 963.43 ± 0.52 kg/m3, the mass density ([3]; x2 = 0.7975) was 959.53 ± 0.52 kg/m3 and the mass density ([3]; x2 = 0.8977) was 955.2 ± 0.5 kg/m3. For the same molecule, the mass density ([3]; x2 = 0.9488) was 952.99 ± 0.52 kg/m3 and the mass density ([3]; x2 = 0.9596) was 952.53 ± 0.52 kg/m3.
Work on CCOc1ccccc1 [ethoxybenzene] + OCCc1ccccc1 yielded an excess molar enthalpy ([1]; x1 = 0.0378) of 0.027 ± 0.000717 kcal/mol, an excess molar enthalpy ([1]; x1 = 0.0728) of 0.0534 ± 0.00124 kcal/mol and an excess molar enthalpy ([1]; x1 = 0.1054) of 0.0772 ± 0.00172 kcal/mol. For the same molecule, the excess molar enthalpy ([1]; x1 = 0.1358) was 0.0979 ± 0.00215 kcal/mol, the excess molar enthalpy ([1]; x1 = 0.1907) was 0.135 ± 0.00287 kcal/mol and the excess molar enthalpy ([1]; x1 = 0.2391) was 0.159 ± 0.00335 kcal/mol. The excess molar enthalpy ([1]; x1 = 0.3203) was 0.193 ± 0.00406 kcal/mol, the excess molar enthalpy ([1]; x1 = 0.3858) was 0.218 ± 0.00478 kcal/mol and the excess molar enthalpy ([1]; x1 = 0.4852) was 0.245 ± 0.00526 kcal/mol. It also gave an excess molar enthalpy ([1]; x1 = 0.5857) of 0.268 ± 0.00574 kcal/mol, an excess molar enthalpy ([1]; x1 = 0.6534) of 0.275 ± 0.00598 kcal/mol and an excess molar enthalpy ([1]; x1 = 0.7388) of 0.273 ± 0.00598 kcal/mol. The excess molar enthalpy ([1]; x1 = 0.7904) was 0.264 ± 0.00574 kcal/mol, the excess molar enthalpy ([1]; x1 = 0.8498) was 0.232 ± 0.00502 kcal/mol and the excess molar enthalpy ([1]; x1 = 0.8829) was 0.204 ± 0.0043 kcal/mol. The excess molar enthalpy ([1]; x1 = 0.9188) was 0.161 ± 0.00359 kcal/mol, the excess molar enthalpy ([1]; x1 = 0.9577) was 0.0965 ± 0.00222 kcal/mol and the refractive index ([2]; x1 = 0.0656) was 1.5252 ± 0.0007. The refractive index ([2]; x1 = 0.1079) was 1.524 ± 0.0007, the refractive index ([2]; x1 = 0.1726) was 1.5223 ± 0.0007 and the refractive index ([2]; x1 = 0.3041) was 1.5187 ± 0.0007. For the same molecule, the refractive index ([2]; x1 = 0.3803) was 1.5166 ± 0.0007, the refractive index ([2]; x1 = 0.4826) was 1.5137 ± 0.0007 and the refractive index ([2]; x1 = 0.5243) was 1.5126 ± 0.0007. It also gave a refractive index ([2]; x1 = 0.5904) of 1.5108 ± 0.0007, a refractive index ([2]; x1 = 0.6819) of 1.5083 ± 0.0007 and a refractive index ([2]; x1 = 0.7929) of 1.5054 ± 0.0007. The refractive index ([2]; x1 = 0.8881) was 1.5029 ± 0.0007, the refractive index ([2]; x1 = 0.9469) was 1.5014 ± 0.0007 and the refractive index ([2]; x1 = 0.9881) was 1.5005 ± 0.0007. For the same molecule, the mass density ([3]; x1 = 0.0656) was 1004.96 ± 0.53 kg/m3, the mass density ([3]; x1 = 0.1079) was 1002.5 ± 0.52 kg/m3 and the mass density ([3]; x1 = 0.1726) was 998.71 ± 0.52 kg/m3. It also gave a mass density ([3]; x1 = 0.3041) of 990.99 ± 0.52 kg/m3, a mass density ([3]; x1 = 0.3803) of 986.52 ± 0.52 kg/m3 and a mass density ([3]; x1 = 0.4826) of 980.37 ± 0.52 kg/m3. The mass density ([3]; x1 = 0.5243) was 978.09 ± 0.52 kg/m3, the mass density ([3]; x1 = 0.5904) was 974.22 ± 0.52 kg/m3 and the mass density ([3]; x1 = 0.6819) was 968.87 ± 0.52 kg/m3. For the same molecule, the mass density ([3]; x1 = 0.7929) was 962.44 ± 0.52 kg/m3, the mass density ([3]; x1 = 0.8881) was 957 ± 0.52 kg/m3 and the mass density ([3]; x1 = 0.9469) was 953.74 ± 0.52 kg/m3. The mass density ([3]; x1 = 0.9881) was 951.5 ± 0.52 kg/m3.
With OCCc1ccccc1 [2-phenylethanol] the mass density ([4]; 308.15 K) was 1008.75 ± 0.56 kg/m3, the refractive index ([5]; 298.15 K) was 1.5321 ± 0.0007 and the refractive index ([5]; 308.15 K) was 1.5269 ± 0.0007.
